Assay results from patent US20240092784A1, “CONDENSED HETEROCYCLIC COMPOUND” (NISSAN CHEMICAL CORPORATION, priority 2020, published 2024).
Structures can show the parent of a compound that is named as a salt.

What follows are molecules tested against human SPR (Homo sapiens (Human), UniProt P35270) (assay: Evaluation Example 2: Measurement of human SPR inhibitory activity (seven concentrations, sepiapterin absorbance at 420 nm)). Settings: Evaluation Example 2, seven concentrations 0.14 nM to 100 nM, 240 minutes at room temperature, read-out: IC50.
Chain of human SPR (P35270 whole entry): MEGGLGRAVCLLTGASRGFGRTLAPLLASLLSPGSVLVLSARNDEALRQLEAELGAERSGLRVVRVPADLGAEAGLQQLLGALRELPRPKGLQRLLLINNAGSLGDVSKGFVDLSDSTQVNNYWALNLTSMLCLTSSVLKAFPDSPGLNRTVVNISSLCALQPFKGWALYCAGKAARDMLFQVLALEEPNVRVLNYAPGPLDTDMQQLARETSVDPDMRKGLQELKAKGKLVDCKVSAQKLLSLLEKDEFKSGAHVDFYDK
Format: biochemical
Summary of the method: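 His-tagged full-length human SPR (1-261) was expressed in E. coli and the tag removed. Enzyme at 150 ng/mL in 100 mM Tris-HCl pH 7.5/0.01% BSA was mixed with compound (0.14–100 nM, seven points), 120 μM sepiapterin and 160 μM NADPH, both as added-solution concentrations. After 240 min at room temperature, remaining sepiapterin was read at 420 nm to give percent inhibition.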

| Structure (SMILES) | IC50 [nM] |
| --- | --- |
| C/C=C/c1c(N)nn2c(O)c(C(=O)NC3CC3)c(=O)n(CC(C)(C)C)c12 [Synthesis Example 438, (E)-2-Amino-N-cyclopropyl-7-hydroxy-4-neopentyl-5-oxo-3-(prop-1-en-1-yl)-4,5-dihydropyrazolo[1,5-a]pyrimidine-6-carboxamide hydrochloride] | 0.98 |
| CC(C)Cn1c(=O)c(C(=O)NC2CC2)c(O)n2ncc(/C=C/C(=O)N3[C@H](C)CC[C@@H]3C)c12 [compound 592, N-Cyclopropyl-3-((E)-3-(cis-2,5-dimethylpyrrolidin-1-yl)-3-oxoprop-1-en-1-yl)-7-hydroxy-4-isobutyl-5-oxo-4,5-dihydropyrazolo[1,5-a]pyrimidine-6-carboxamide] | 1.46 |
| CC(C)Cn1c(=O)c(C(=O)NC2CC2)c(O)n2ncc(/C=C/C(=O)N3CCO[C@@H](C(F)(F)F)C3)c12 [compound 529, (R,E)-N-Cyclopropyl-7-hydroxy-4-isobutyl-5-oxo-3-(3-oxo-3-(2-(trifluoromethyl)morpholino)prop-1-en-1-yl)-4,5-dihydropyrazolo[1,5-a]pyrimidine-6-carboxamide] | 1.03 |
| CC(C)Cn1c(=O)c(C(=O)NC2CC2)c(O)n2ncc(/C=C/C(=O)N3CCC(C)(O)C3)c12 (racemic) [compound 500, (E)-N-Cyclopropyl-7-hydroxy-3-(3-(3-hydroxy-3-methylpyrrolidin-1-yl)-3-oxoprop-1-en-1-yl)-4-isobutyl-5-oxo-4,5-dihydropyrazolo[1,5-a]pyrimidine-6-carboxamide (racemate)] | 0.88 |
| Cc1cnc(CNC(=O)c2cnn3c(O)c(C(=O)NC4CC4)c(=O)n(CC(C)C)c23)cn1 [Synthesis Example 224, N6-Cyclopropyl-7-hydroxy-4-isobutyl-N3-((5-methylpyrazin-2-yl)methyl)-5-oxo-4,5-dihydropyrazolo[1,5-a]pyrimidine-3,6-dicarboxamide] | 0.78 |
| CC(C)Cn1c(=O)c(C(=O)NC2CC2)c(O)n2ncc(CNC(=O)C3CCOCC3)c12 [Synthesis Example 262, N-Cyclopropyl-7-hydroxy-4-isobutyl-5-oxo-3-((tetrahydro-2H-pyran-4-carboxamido)methyl)-4,5-dihydropyrazolo[1,5-a]pyrimidine-6-carboxamide] | 1.01 |
| CC(C)Cn1c(=O)c(C(=O)NC2CC2)c(O)n2ncc(/C=C/C(=O)N3CCC(F)(F)C3)c12 [compound 453, (E)-N-Cyclopropyl-3-(3-(3,3-difluoropyrrolidin-1-yl)-3-oxoprop-1-en-1-yl)-7-hydroxy-4-isobutyl-5-oxo-4,5-dihydropyrazolo[1,5-a]pyrimidine-6-carboxamide] | 0.82 |
| CC(C)(C)Cn1c(=O)c(C(=O)NC2CC2)c(O)n2nc(-c3cncnc3)cc12 [Synthesis Example 288, N-Cyclopropyl-7-hydroxy-4-neopentyl-5-oxo-2-(pyrimidin-5-yl)-4,5-dihydropyrazolo[1,5-a]pyrimidine-6-carboxamide] | 1.37 |
| CC(C)(C)Cn1c(=O)c(C(=O)NC2CC2)c(O)n2nc3c(c12)CCN3CC(F)(F)F [Synthesis Example 398, N-Cyclopropyl-7-hydroxy-4-neopentyl-5-oxo-1-(2,2,2-trifluoroethyl)-2,3,4,5-tetrahydro-1H-pyrrolo[2′,3′:3,4]pyrazolo[1,5-a]pyrimidine-6-carboxamide] | 6.08 |
| CC(C)Cn1c(=O)c(C(=O)NC2CC2)c(O)n2ncc(C(=O)NCc3ncccn3)c12 [Synthesis Example 231, N6-Cyclopropyl-7-hydroxy-4-isobutyl-5-oxo-N3-(pyrimidin-2-ylmethyl)-4,5-dihydropyrazolo[1,5-a]pyrimidine-3,6-dicarboxamide] | 0.65 |
| CC(C)Cn1c(=O)c(C(=O)NC2CC2)c(O)n2ncc(/C=C/C(=O)N3CCC(F)(F)CC3C)c12 (racemic) [compound 546, (E)-N-Cyclopropyl-3-(3-(4,4-difluoro-2-methylpiperidin-1-yl)-3-oxoprop-1-en-1-yl)-7-hydroxy-4-isobutyl-5-oxo-4,5-dihydropyrazolo[1,5-a]pyrimidine-6-carboxamide (racemate)] | 0.77 |
| CC(C)Cn1c(=O)c(C(=O)NC2CC2)c(O)n2ncc(C#N)c12 [Synthesis Example 261, 3-Cyano-N-cyclopropyl-7-hydroxy-4-isobutyl-5-oxo-4,5-dihydropyrazolo[1,5-a]pyrimidine-6-carboxamide] | 2.27 |
| CC(C)Cn1c(=O)c(C(=O)NC2CC2)c(O)n2ncc(C(=O)N(C)Cc3cccnc3)c12 [Synthesis Example 230, N6-Cyclopropyl-7-hydroxy-4-isobutyl-N3-methyl-5-oxo-N3-(pyridin-3-ylmethyl) 4,5-dihydropyrazolo[1,5-a]pyrimidine-3,6-dicarboxamide] | 0.93 |
| CC(C)(C)Cn1c(=O)c(C(=O)NC2CC2)c(O)n2nc(N3CC[C@@H](N)C3)cc12 [Synthesis Example 341, (R)-2-(3-Aminopyrrolidin-1-yl)-N-cyclopropyl-7-hydroxy-4-neopentyl-5-oxo-4,5-dihydropyrazolo[1,5-a]pyrimidine-6-carboxamide] | 2.6 |
| CC(C)Cn1c(=O)c(C(=O)NC2CC2)c(O)n2ncc(/C=C/C(=O)N3CCC[C@@H]3C#N)c12 [compound 496, (R,E)-3-(3-(2-Cyanopyrrolidin-1-yl)-3-oxoprop-1-en-1-yl)-N-cyclopropyl-7-hydroxy-4-isobutyl-5-oxo-4,5-dihydropyrazolo[1,5-a]pyrimidine-6-carboxamide] | 0.75 |
| CC(C)(C)Cn1c(=O)c(C(=O)NC2CC2)c(O)n2nc(-c3cccnc3C(F)(F)F)cc12 [Synthesis Example 284, N-Cyclopropyl-7-hydroxy-4-neopentyl-5-oxo-2-(2-(trifluoromethyl)pyridin-3-yl)-4,5-dihydropyrazolo[1,5-a]pyrimidine-6-carboxamide] | 3.93 |
| CC(C)Cn1c(=O)c(C(=O)NC2CC2)c(O)n2ncc(/C=C/C(=O)N3CCC[C@@H]3C(F)(F)F)c12 [compound 485, (R,E)-N-Cyclopropyl-7-hydroxy-4-isobutyl-5-oxo-3-(3-oxo-3-(2-(trifluoromethyl)pyrrolidine-1-yl)prop-1-en-1-yl)-4,5-dihydropyrazolo[1,5-a]pyrimidine-6-carboxamide] | 1.1 |
| CC(C)Cn1c(=O)c(C(=O)NC2CC2)c(O)n2ncc(/C=C/C(=O)N3CC[C@H](C(N)=O)C3)c12 [compound 512, (S,E)-3-(3-(3-Carbamoylpyrrolidin-1-yl)-3-oxoprop-1-en-1-yl)-N-cyclopropyl-7-hydroxy-4-isobutyl-5-oxo-4,5-dihydropyrazolo[1,5-a]pyrimidine-6-carboxamide] | 0.69 |
| Cc1cc2n(CC(C)(C)C)c(=O)c(C(=O)NC3CC3)c(O)n2n1 [Synthesis Example 320, N-Cyclopropyl-7-hydroxy-2-methyl-4-neopentyl-5-oxo-4,5-dihydropyrazolo[1,5-a]pyrimidine-6-carboxamide] | 1.69 |
| COC(=O)Nc1nn2c(O)c(C(=O)NC3CC3)c(=O)n(CC(C)C)c2c1/C=C/C(=O)N1CCOCC1 [Synthesis Example 425, Methyl (E)-(6-(cyclopropylcarbamoyl)-7-hydroxy-4-isobutyl-3-(3-morpholino-3-oxoprop-1-en-1-yl)-5-oxo-4,5-dihydropyrazolo[1,5-a]pyrimidin-2-yl)carbamate] | 0.77 |
| CC(C)(C)Cn1c(=O)c(C(=O)NC2CC2)c(O)n2nc(-c3c[nH]nc3C(N)=O)cc12 [Synthesis Example 312, 2-(3-Carbamoyl-1H-pyrazol-4-yl)-N-cyclopropyl-7-hydroxy-4-neopentyl-5-oxo-4,5-dihydropyrazolo[1,5-a]pyrimidine-6-carboxamide] | 1.3 |
| Cc1nn2c(O)c(C(=O)NC3CC3)c(=O)n(CC(C)C)c2c1/C=C/C(=O)N1CCOCC1 [compound 563, (E)-N-Cyclopropyl-7-hydroxy-4-isobutyl-2-methyl-3-(3-morpholino-3-oxoprop-1-en-1-yl)-5-oxo-4,5-dihydropyrazolo[1,5-a]pyrimidine-6-carboxamide] | 0.7 |
| CC(C)Cn1c(=O)c(C(=O)NC2CC2)c(O)n2ncc(/C=C/C(=O)N3C[C@H]4C[C@@H]3CO4)c12 [compound 538, 3-((E)-3-((1R,4R)-2-Oxa-5-azabicyclo[2.2.1]heptan-5-yl)-3-oxoprop-1-en-1-yl)-N-cyclopropyl-7-hydroxy-4-isobutyl-5-oxo-4,5-dihydropyrazolo[1,5-a]pyrimidine-6-carboxamide] | 0.69 |

Same assay, conditions: sepiapterin absorbance, Table 41, read-out: concentration at 50% inhibition of human SPR (IC50)

| Structure (SMILES) | IC50 [nM] |
| --- | --- |
| CC(C)Cn1c(=O)c(C(=O)NC2CC2)c(O)n2ncc(/C=C/C(=O)N3CCC[C@H]3c3ccccc3)c12 [Synthesis Example 727, (S,E)-N-Cyclopropyl-7-hydroxy-4-isobutyl-5-oxo-3-(3-oxo-3-(2-phenylpyrrolidin-1-yl)prop-1-en-1-yl)-4,5-dihydropyrazolo[1,5-a]pyrimidine-6-carboxamide] | 1.34 |
| Cc1nn2c(O)c(C(=O)NC3CC3)c(=O)n(CC(C)C)c2c1/C=C/C(=O)N1CC[C@@H](C#N)C1 [Synthesis Example 689, (R,E)-3-(3-(3-Cyanopyrrolidin-1-yl)-3-oxoprop-1-en-1-yl)-N-cyclopropyl-7-hydroxy-4-isobutyl-2-methyl-5-oxo-4,5-dihydropyrazolo[1,5-a]pyrimidine-6-carboxamide] | 0.95 |
| Cc1nn2c(O)c(C(=O)NC3CC3)c(=O)n(CC(C)C)c2c1/C=C/C(=O)N1CC[C@H](C#N)C1 [Synthesis Example 688, (S,E)-3-(3-(3-Cyanopyrrolidin-1-yl)-3-oxoprop-1-en-1-yl)-N-cyclopropyl-7-hydroxy-4-isobutyl-2-methyl-5-oxo-4,5-dihydropyrazolo[1,5-a]pyrimidine-6-carboxamide] | 0.91 |
